Literature values in paper PMC7099596 (ACS Central Science, 2020).

Legend:
[1] = tested on: MCF-7 breast cancer cell line; conditions: read-out: EC50 antiproliferative activity, MCF-7, ref NCI ID: 122750
[2] = tested on: SKBr-3 breast cancer cell line; conditions: read-out: EC50 antiproliferative activity, SKBr-3, ref NCI ID: 122750

Structure (SMILES): COC1=C2C[C@@H](C)C[C@H](OC)[C@H](O)[C@@H](C)/C=C(\C)[C@H](OC(N)=O)[C@@H](OC)/C=C\C=C(/C)C(=O)NC(=CC1=O)C2=O [geldanamycin]
- EC50 [1]: 19.9 nM
- EC50 [2]: 24 nM
